Reference: patent publication US4341770A, “Method of controlling ureaplasma infections” (Eli Lilly and Company, priority 1981, dated 1982)
In brackets after ≈: the same amount, converted by molar mass.

Experiments:
[1] = Prevention of naturally occurring pneumonia in calves with OMT (Example 2); type: in vivo; details: for cumulative mortality: 19 calves per group
Experimental: OMT was evaluated in calves for the prevention and control of naturally occurring pneumonia. Calves were purchased and transported to Lilly Research Laboratories, Greenfield, Ind. Soon after arrival the calves were weighed, bled, identified with eartags and allotted into pens. There were 19 calves in the OMT-treated group and 19 calves in the nontreated control group.
OMT was prepared as an injectable in an aqueous propylene glycol vehicle. The treated calves were each injected subcutaneously with 35 mg/lb (77 mg/kg) of OMT within a day after arrival. At this dose and route of administration, the drug was expected, based on blood level studies, to persist for seven days in the treated calves. The calves were each retreated with the same dose seven days later. Rectal temperatures were taken and clinical observations were made daily. Calves that died were examined at necropsy for lesions indicative of pneumonia.

[2] = Treatment of naturally occurring pneumonia in calves with OMT (Example 1); type: in vivo; details: for temperature averages of the calves: controls remained above 40° C. for 10 days; for calves that died: six of ten placebo-treated died
Experimental: Example one illustrates the useful in vivo activity of OMT against Ureaplasma. In the example OMT (free base) was administered in an aqueous propylene glycol solution, and non-medicated water and feed were provided to the animals ad libitum.
(§1) OMT was evaluated in calves for the treatment of naturally occurring pneumonia. Calves were purchased and transported to Lilly Research Laboratories, Greenfield, Indiana. The calves were weighed, bled, identified with eartags and allotted into pens soon after arrival. Rectal temperatures were taken and clinical observations were made daily.
(§2) Calves were put on test at the first signs of respiratory disease which included ocular and nasal discharges, pyrexia and/or depression.
(§3) Treated calves were injected intramuscularly with OMT in an aqueous propylene glycol vehicle. The treatment doses evaluated were 12.5 mg/kg and 25 mg/kg once a day for five days. Control calves were treated with placebo. There were 10 calves per group. Calves that died were examined at necropsy for lesions indicative of pneumomia. Surviving calves were killed seven days after the last treatment and examined for lesions at necropsy.

[3] = system: Ureaplasma isolate 779T-3; assay: conventional broth-dilution assay, MIC against Ureaplasma isolate 779T-3; type: cell-based
Text: (§4) For example, in the conventional broth-dilution assay, OMT had minimal inhibitory concentrations (MIC's) against four isolates of Ureaplasma as shown in Table I.

[4] = system: Ureaplasma isolate 765T-3; assay: conventional broth-dilution assay, MIC against Ureaplasma isolate 765T-3; type: cell-based
Text: as §4

Ureaplasma species [5] = assay: Treatment of pneumonia in calves (Example 1): isolation of Ureaplasma from lung tissue; type: in vivo
Experimental: as §1, §2, §3

[6] = system: Ureaplasma isolate 773T-2; assay: conventional broth-dilution assay, MIC against Ureaplasma isolate 773T-2; type: cell-based
Text: as §4

[7] = system: Ureaplasma isolate 763T-2; assay: conventional broth-dilution assay, MIC against Ureaplasma isolate 763T-2; type: cell-based
Text: as §4

Pasteurella species = assay: Treatment of pneumonia in calves (Example 1): control of Pasteurella; type: in vivo
Experimental: as §1, §2, §3

gram-positive bacteria = details: taught by U.S. Pat. No. 3,459,853; cited from earlier work
Ureaplasma species [8] = details: background statement; cited from earlier work
[9] = 77 mg/kg subcutaneous, repeated after seven days, 14-day observation
[10] = 12.5 mg/kg intramuscular once a day for five days
[11] = 25 mg/kg intramuscular once a day for five days

SMILES: CCC1OC(=O)CC(O)C(C)C(OC2OC(C)C(O)C(N(C)C)C2O)C(CC=O)CC(C)C(=O)C=CC(C)=CC1CO (stereo not drawn) [OMT, 5-O-mycaminosyl tylonolide]
- preventing death of calves due to a severe pneumonia ([1]; 77 mg/kg subcutaneous, repeated after seven days): very effective in preventing death of calves
- Scours [1, 9]: less severe
- nasal and ocular discharges [1, 9]: less severe
- average temperatures ([1]; 77 mg/kg subcutaneous, repeated after seven days, 14-day observation, vs non-medicated controls): lower
- alertness and condition of calves ([1]; 77 mg/kg subcutaneous, repeated after seven days, vs controls): more alert and in better condition than the controls
- cumulative mortality ([1]; day 1, control 0): 0
- cumulative mortality ([1]; day 2, control 0): 0
- cumulative mortality ([1]; day 3, control 0): 0
- cumulative mortality ([1]; day 4, control 1): 0
- cumulative mortality ([1]; day 5, control 3): 0
- cumulative mortality ([1]; day 6, control 5): 0
- cumulative mortality ([1]; day 7, control 5): 0
- cumulative mortality ([1]; day 8, control 5): 0
- cumulative mortality ([1]; day 9, control 9): 0
- cumulative mortality ([1]; day 10, control 11): 0
- cumulative mortality ([1]; day 11, control 13): 0
- cumulative mortality ([1]; day 12, control 14): 0
- cumulative mortality ([1]; day 13, control 14): 2
- cumulative mortality ([1]; day 14, control 15): 3
- calves that died with extensive pathologic lesions indicative of severe pneumonia ([1]; necropsy, 14 of the 15 control calves): 3 calves
- Scours [2, 10]: reduced
- ocular discharge [2, 10]: reduced
- temperature averages of the calves [2, 10]: lowered to normal by the second day of treatment
- calves that died [2, 10]: two of ten
- Scours [2, 11]: reduced
- ocular discharge [2, 11]: reduced
- temperature averages of the calves [2, 11]: lowered to normal by the second day of treatment
- calves that died [2, 11]: two of ten
- MIC [3]: 1.56 µg/mL (≈ 2.61 µM)
- MIC [4]: 1.56 µg/mL (≈ 2.61 µM)
- Ureaplasma species isolated from lung tissue (Ureaplasma species [5]; 12.5 mg OMT/kg intramuscular once a day for five days, also isolated with placebo): isolated from lung tissue
- elimination of the Ureaplasma species from the animals (Ureaplasma species [5]; [11]): eliminated the Ureaplasma species
- Ureaplasma species isolated from calves (Ureaplasma species [5]; 25 mg/kg intramuscular once a day for five days, isolated from lung tissue of placebo calves): not isolated
- MIC [6]: 1.56 µg/mL (≈ 2.61 µM)
- MIC [7]: 0.78 µg/mL (≈ 1.3 µM)
- control of Pasteurella species associated with this pneumonia (Pasteurella species; [10]): effectively controlled
- control of Pasteurella species associated with this pneumonia (Pasteurella species; [11]): effectively controlled
- inhibition of gram-positive bacteria (gram-positive bacteria): inhibited gram-positive bacteria

SMILES: CCC[C@@H]1C[C@@H](C(=O)N[C@@H]([C@H]2O[C@H](SC)[C@H](O)[C@@H](O)[C@H]2O)[C@@H](C)O)N(C)C1 [lincomycin]
- resistance of Ureaplasma species (Ureaplasma species [8]): resistant
